In the NIST ThermoML archive (doi:10.1021/je400821q):

Assay: osmotic coefficient (dimensionless); mn = molality of the nth substance listed, in mol/kg
Conditions: 308.15 K, Liquid, Osmomat K-7000

CCCC[N+](CCCC)(CCCC)CCCC.[Br-] [tetrabutylammonium bromide] + O
Conditions | osmotic coefficient
m1 = 0.00627 | 0.9763
m1 = 0.0125 | 0.9517
m1 = 0.02562 | 0.9279
m1 = 0.03159 | 0.9191
m1 = 0.03774 | 0.9126
m1 = 0.04597 | 0.9006
m1 = 0.06502 | 0.8805
m1 = 0.07496 | 0.8725
m1 = 0.113 | 0.8403
m1 = 0.1459 | 0.8228
m1 = 0.1775 | 0.8131
m1 = 0.2126 | 0.8046
m1 = 0.2558 | 0.794
m1 = 0.3305 | 0.785

C[N+](C)(C)C.[Br-] [tetramethylammonium bromide] + O
Conditions | osmotic coefficient
m1 = 0.01285 | 0.9931
m1 = 0.02557 | 0.9742
m1 = 0.03787 | 0.9583
m1 = 0.0549 | 0.948
m1 = 0.06504 | 0.94
m1 = 0.07726 | 0.9311
m1 = 0.0956 | 0.9195
m1 = 0.1326 | 0.8936
m1 = 0.1678 | 0.8796
m1 = 0.203 | 0.8696
m1 = 0.2383 | 0.8623
m1 = 0.3083 | 0.8489

C[N+](C)(C)C.[Cl-] [tetramethylammonium chloride] + O
Conditions | osmotic coefficient
m1 = 0.01861 | 0.9937
m1 = 0.03679 | 0.9747
m1 = 0.05507 | 0.958
m1 = 0.07403 | 0.9487
m1 = 0.09359 | 0.9393
m1 = 0.1112 | 0.9297
m1 = 0.1397 | 0.9173
m1 = 0.1877 | 0.8997
m1 = 0.2352 | 0.8878
m1 = 0.284 | 0.8757
m1 = 0.333 | 0.8675

C[N+](C)(C)C.[I-] [tetramethylammonium iodide] + O
Conditions | osmotic coefficient
m1 = 0.01012 | 0.9766
m1 = 0.02006 | 0.9573
m1 = 0.0301 | 0.9365
m1 = 0.04063 | 0.9245
m1 = 0.04966 | 0.9108
m1 = 0.05912 | 0.8995
m1 = 0.07116 | 0.883
m1 = 0.1026 | 0.8569
m1 = 0.1286 | 0.8396
m1 = 0.1527 | 0.8277
m1 = 0.1802 | 0.8188

CC[N+](CC)(CC)CC.[Br-] [tetraethylammonium bromide] + O
Conditions | osmotic coefficient
m1 = 0.00966 | 0.9933
m1 = 0.01943 | 0.9737
m1 = 0.03868 | 0.9492
m1 = 0.0491 | 0.9327
m1 = 0.05837 | 0.9256
m1 = 0.07077 | 0.916
m1 = 0.09678 | 0.8994
m1 = 0.1197 | 0.8851
m1 = 0.1561 | 0.869
m1 = 0.2146 | 0.85
m1 = 0.2799 | 0.8376
m1 = 0.3398 | 0.8275
